In patent US20110046235A1, “PRODUCTS COMPRISING, AND USES OF, DECARBOXYLATED PHENOLIC ACIDS DERIVED FROM CHLOROGENIC ACIDS OF COFFEE” (NESTEC S.A., priority 2008, published 2011):

Assays:
Nrf2 = assay: Antioxidant Responsive Element (ARE) luciferase assay; assay type: cell-based, human; details: 24 h, AREc 32 (MCF7) cells
From the text: The pGL-8×ARE which contains eight copies of the ARE present in rat glutathione-S-transferase A2 (GSTA2) along with the pcDNA3.1 plasmid containing the neomycin selectable marker was stably transfected into human MCF7 cells (Wang et al., Cancer Res. 66, 10983-10994, 2006). ARE (antioxidant-responsive element) is the binding site of the transcription factor Nrf2 which regulates the genes involved in detoxification and endogenous defence against oxidative stress. The plasmid pGL-8×ARE contains a luciferase gene downstream of the eight Nrf2 binding sites that allows monitoring Nrf2 activity. The AREc 32 cells were seeded in 96-well microtiter plates in DMEM growth medium. After treatment with 4-vinylcatechol for 24 h firefly luciferase activity was determined.

[1] = system: PGE2 production in HT-29 cells; assay: Prostaglandin E2 formation assay; assay type: cell-based, human; details: 15 h then 6 h with TNF-α 10 ng/ml
Protocol: Human colon HT-29 cells were treated with 4-vinylcatechol for 15 h followed by a co-incubation of 6 h together with a pro-inflammatory agent TNF-α (10 ng/ml). Analysis of the PGE2 production in HT-29 cells was determined using a competitive enzyme immunoassay (EIA) (Cavin et al., BBRC 327, 742-49, 2005).

With `C=Cc1ccc(O)c(O)c1` [4-vinylcatechol] the “firefly luciferase activity (induction of Nrf2 activity)” value (“firefly luciferase activity” below) (Nrf2; 4-vinylcatechol 200 μg/ml) was 16 AU, the “firefly luciferase activity” value (Nrf2; 4-vinylcatechol 400 μg/ml) was 41 AU and the “firefly luciferase activity” value (Nrf2; 4-vinylcatechol 600 μg/ml) was 22 AU. The PGE2 formation ([1]; 4-vinylcatechol 3.13 μg/ml) was 58 % of control, the PGE2 formation ([1]; 4-vinylcatechol 6.25 μg/ml) was 46 % of control and the PGE2 formation ([1]; 4-vinylcatechol 9.38 μg/ml) was 21 % of control. The PGE2 formation ([1]; 4-vinylcatechol 15.63 μg/ml) was 12 % of control, the PGE2 formation ([1]; 4-vinylcatechol 31.25 μg/ml) was 5 % of control and the PGE2 formation ([1]; 4-vinylcatechol 62.5 μg/ml) was 2 % of control.
